Reference: patent US9278915B2, “Agonists of GPR40” (CONNEXIOS LIFE SCIENCES PVT LTD, priority 2010, dated 2016)

Target: T1, hGPR40 (Homo sapiens, UniProt O14842)
T1 construct: expressed in transfected cells
Assay: Calcium flux assay to detect GPR40 activation
Format: cell-based
Settings: CHO-K cells stably expressing hGPR40; Fluo-4 NW; read for 4 min at 5 s intervals
Experimental: Biological Activity Calium Flux Assay to Detect GPR40 Activation: CHO-K cells stably expressing hGPR40 were selected in a media containing Neomycin/G418. The cells were plated at a concentration of 20,000 cells per well in black 96-well clear bottom tissue culture treated plates. The cells were cultured for 24 h at 37° C. in a humidified 5% CO2 air environment to allow for protein expression. The next day, after removal of media from wells, Fluo-4 NW (Invitrogen) is added at 100 ul/well and the cells were incubated for 30 min at 37° C. and for a further 30 min at RT. All test compounds were diluted to appropriate concentrations in HEPES buffer. Compounds were added to the cells and the wells were read in the BioTEK synergy reader and readings were taken for 4 min with an interval of 5 s.

T1 sequence (O14842 whole entry): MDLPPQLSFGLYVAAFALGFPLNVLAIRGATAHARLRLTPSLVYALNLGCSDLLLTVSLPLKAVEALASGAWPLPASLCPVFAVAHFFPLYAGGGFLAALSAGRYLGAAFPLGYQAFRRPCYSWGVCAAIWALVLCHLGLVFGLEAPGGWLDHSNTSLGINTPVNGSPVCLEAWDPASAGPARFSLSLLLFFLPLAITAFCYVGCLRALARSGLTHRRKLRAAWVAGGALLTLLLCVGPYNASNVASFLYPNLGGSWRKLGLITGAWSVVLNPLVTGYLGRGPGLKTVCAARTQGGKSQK

Row | EC50 [nM] | SMILES
1 | > 100 | CO/N=C(\COc1ccc(COc2ccc(CCC(=O)O)c(OCC3CC3)c2)cc1)c1ccccc1 [Compound 58, 3-{2-(Cyclopropylmethoxy)-4-[(4-{[(2Z)-2-(methoxyimino)-2-phenylethyl]oxy}benzyl)oxy]phenyl}propanoic acid]
2 | 10 to 100 | CO/N=C(\COc1ccc(COc2ccc3c(c2)OCC3CC(=O)O)cc1)c1ccccc1 (centres unmarked) [Compound 73, {6-[(4-{[(2Z)-2-(Methoxyimino)-2-phenylethyl]oxy}benzyl)oxy]-2,3-dihydro-1-benzofuran-3-yl}acetic acid]
3 | < 10 | CO/N=C(/COc1ccc(COc2ccc(C(C#N)CC(=O)O)cc2)cc1)c1ccc(F)cc1 (racemic) [Compound 22, 3-Cyano-3-{4-[(4-{[(2E,2Z)-2-(4-fluorophenyl)-2-(methoxyimino)ethyl]oxy}benzyl)oxy]phenyl}propanoic acid]
4 | > 100 | CO/N=C(\COc1ccc(COc2ccc(CCC(=O)O)cc2)cn1)c1ccccc1 [Compound 20, 3-{4-[(6-{[(2Z)-2-(Methoxyimino)-2-phenylethyl]oxy}pyridin-3-yl)methoxy]phenyl}propanoic acid]
5 | < 10 | CO/N=C(\COc1ccc(COc2ccc(C(C#N)CC(=O)O)cc2)cc1)c1ccc(OC)cc1 (centres unmarked) [Compound 66, 3-Cyano-3-{4-[(4-{[(2Z)-2-(methoxyimino)-2-(4-methoxyphenyl)ethyl]oxy}benzyl)oxy]phenyl}propanoic acid]
6 | 10 to 100 | CO/N=C(\COc1ccc(COc2ccc(C(C#N)CC(=O)O)cc2)cc1)C1=Cc2ccccc2C1 (centres unmarked) [Compound 101, 3-Cyano-3-{4-[(4-{[(2Z)-2-(1H-inden-2-yl)-2-(methoxyimino)ethyl]oxy}benzyl)oxy]phenyl}propanoic acid]
7 | < 10 | CO/N=C(\COc1ccc(COc2ccc(C3CC3C(=O)O)cc2)cc1)c1ccc(C#N)cc1 (single isomer, unassigned) [Compound 80, Sodium 2-{4-[(4-{[(2Z)-2-(4-cyanophenyl)-2-(methoxyimino)ethyl]oxy}benzyl)oxy]phenyl}cyclopropanecarboxylate]
8 | > 100 | CO/N=C(\COc1ccc(COc2ccc(C(C#N)CC(=O)O)cc2)cc1)c1ccccc1 (single isomer, unassigned; (+)) [Compound 74, (+)-3-Cyano-3-{4-[(4-{[(2Z)-2-(methoxyimino)-2-phenylethyl]oxy}benzyl)oxy]phenyl}propanoic acid]
9 | > 100 | CO/N=C(\COc1ccc(COc2ccc(/C=C/C(=O)O)c(-c3cc(C)on3)c2)cc1)c1ccccc1 [Compound 97, (2E,2Z)-3-{4-[(4-{[(2Z)-2-(Methoxyimino)-2-phenylethyl]oxy}benzyl)oxy]-2-(5-methyl-1,2-oxazol-3-yl)phenyl}prop-2-enoic acid]
10 | 10 to 100 | CO/N=C(/COc1ccc(COc2ccc(C(C#N)CC(=O)O)cc2)cc1)c1ccccc1 (racemic) [Compound 98, 3-Cyano-3-{4-[(4-{[(2E)-2-(methoxyimino)-2-phenylethyl]oxy}benzyl)oxy]phenyl}propanoic acid]
11 | < 10 | CO/N=C(\COc1ccc(COc2ccc(C(C#N)CC(=O)O)cc2)cc1F)c1ccccc1 (centres unmarked) [Compound 50, Sodium 3-cyano-3-{4-[(3-fluoro-4-{[(2Z)-2-(methoxyimino)-2-phenylethyl]oxy}benzyl)oxy]phenyl}propanoate]
12 | > 100 | CO/N=C(/COc1ccc(COc2ccc(C(C#N)CC(=O)O)cc2)cc1)C1CC1 (centres unmarked) [Compound 104, 3-Cyano-3-{4-[(4-{[(2E)-2-cyclopropyl-2-(methoxyimino)ethyl]oxy}benzyl)oxy]phenyl}propanoic acid]
13 | > 100 | CO/N=C(\COc1ccc(COc2ccc(C(CC(=O)O)C(N)=O)cc2)cc1)c1ccccc1 (centres unmarked) [Compound 93, 4-Amino-3-{4-[(4-{[(2Z)-2-(methoxyimino)-2-phenylethyl]oxy}benzyl)oxy]phenyl}-4-oxobutanoic acid]
14 | 10 to 100 | CO/N=C(/COc1ccc(COc2ccc(C(C#N)CC(=O)O)cc2)cc1F)c1ccccc1 (racemic) [Compound 21, 3-Cyano-3-{4-[(3-fluoro-4-{[(2E,2Z)-2-(methoxyimino)-2-phenylethyl]oxy}benzyl)oxy]phenyl}propanoic acid]
15 | > 100 | N#CC(CC(=O)O)c1ccc(OCc2ccc(OC/C(=N\O)c3ccccc3)cc2)cc1 (centres unmarked) [Compound 109, 3-Cyano-3-{4-[(4-{[(2Z)-2-(hydroxyimino)-2-phenylethyl]oxy}benzyl)oxy]phenyl}propanoic acid]
16 | < 10 | CO/N=C(/COc1ccc(COc2ccc(C(C#N)CC(=O)O)cc2)cc1)c1ccc(OC)cc1 (racemic) [Compound 25, 3-Cyano-3-{4-[(4-{[(2E,2Z)-2-(methoxyimino)-2-(4-methoxyphenyl)ethyl]oxy}benzyl)oxy]phenyl}propanoic acid]

Row | EC50 [nM] | SMILES
17 | 10 to 100 | CO/N=C(\COc1ccc(COc2ccc([C@H]3C[C@@H]3C(=O)O)cc2)cc1)c1ccc(C#N)cc1 [Compound 64, (1S,2S)-2-{4-[(4-{[(2E,2Z)-2-(4-Cyanophenyl)-2-(methoxyimino)ethyl]oxy}benzyl)oxy]phenyl}cyclopropanecarboxylic acid]
18 | 10 to 100 | CON=C(COc1ccc(CNc2ccc([C@@H]3C[C@H]3C(=O)O)cc2)cc1)c1ccccc1 (mixture of isomers) [Compound 14, (1R,2R)-2-{4-[(4-{[(2E,2Z)-2-(Methoxyimino)-2-phenylethyl]oxy}benzyl)amino]phenyl}cyclopropanecarboxylic acid]
19 | > 100 | CO/N=C(\COc1ccc(COc2ccc(CCC(=O)O)c(-c3c(C)noc3C)c2)cc1)c1ccccc1 [Compound 84, 3-{2-(3,5-Dimethyl-1,2-oxazol-4-yl)-4-[(4-{[(2E,2Z)-2-(methoxyimino)-2-phenylethyl]oxy}benzyl)oxy]phenyl}propanoic acid]
20 | < 10 | CC#CC(CC(=O)O)c1ccc(OCc2ccc(OC/C(=N\OC)c3ccccc3)cc2)cc1 (centres unmarked) [Compound 85, 3-{4-[(4-{[(2Z)-2-(Methoxyimino)-2-phenylethyl]oxy}benzyl)oxy]phenyl}hex-4-ynoic acid]
21 | 10 to 100 | CO/N=C(\COc1ccc(COc2ccc(C(CC(=O)O)c3ccon3)cc2)cc1)c1ccccc1 (centres unmarked) [Compound 17, 3-{4-[(4-{[(2Z)-2-(methoxyimino)-2-phenylethyl]oxy}benzyl)oxy]phenyl}-3-(1,2-oxazol-3-yl)propanoic acid]
22 | 10 to 100 | CO/N=C(\COc1ccc(COc2ccc(C3CC3C(=O)O)cc2)cc1)c1ccc(OC)cc1 (centres unmarked) [Compound 57, Sodium 2-{4-[(4-{[(2Z)-2-(methoxyimino)-2-(4-methoxyphenyl)ethyl]oxy}benzyl)oxy]phenyl}cyclopropanecarboxylate]
23 | 10 to 100 | CO/N=C(\COc1ccc(COc2ccc(C(C#N)CC(=O)O)cc2)cc1OC)c1ccccc1 (centres unmarked) [Compound 26, 3-Cyano-3-{4-[(3-methoxy-4-{[(2Z)-2-(methoxyimino)-2-phenylethyl]oxy}benzyl)oxy]phenyl}propanoic acid]
24 | > 100 | CO/N=C(\COc1ccc(COc2ccc(CCC(=O)O)cc2)cc1)c1ccc(S(C)(=O)=O)cc1 [Compound 92, 3-(4-{[4-({(2Z)-2-(Methoxyimino)-2-[4-(methylsulfonyl)phenyl]ethyl}oxy)benzyl]oxy}phenyl)propanoic acid]
25 | 10 to 100 | CON=C(COc1ccc(CNc2ccc(C3CC3C(=O)O)cc2)cc1)c1ccccc1 (mixture of isomers) [Compound 48, Sodium 2-{4-[(4-{[(2E,2Z)-2-(methoxyimino)-2-phenylethyl]oxy}benzyl)amino]phenyl}cyclopropanecarboxylate]
26 | > 100 | CO/N=C(\COc1ccc(COc2ccc(/C(CC(=O)O)=N\OCc3ccccc3)cc2)cc1)c1ccccc1 [Compound 122, (3E,3Z)-3-[(Benzyloxy)imino]-3-{4-[(4-{[(2Z)-2-(methoxyimino)-2-phenylethyl]oxy}benzyl)oxy]phenyl}propanoic acid]
27 | > 100 | CO/N=C(/COc1ccc(COc2ccc(COCC(=O)O)cc2)cc1)c1ccccc1 [Compound 30, ({4-[(4-{[(2E,2Z)-2-(Methoxyimino)-2-phenylethyl]oxy}benzyl)oxy]benzyl}oxy)acetic acid]
28 | < 10 | CO/N=C(\COc1ccc(COc2ccc(C(C#N)CC(=O)O)c(F)c2)cc1)c1ccccc1 (centres unmarked) [Compound 77, 3-Cyano-3-{2-fluoro-4-[(4-{[(2Z)-2-(methoxyimino)-2-phenylethyl]oxy}benzyl)oxy]phenyl}propanoic acid]
29 | > 100 | CO/N=C(\COc1ccc(COc2ccc(/C(CC(=O)O)=N\Oc3ccccc3)cc2)cc1)c1ccccc1 [Compound 123, (3E,3Z)-3-{4-[(4-{[(2Z)-2-(Methoxyimino)-2-phenylethyl]oxy}benzyl)oxy]phenyl}-3-(phenoxyimino) propanoic acid]
30 | 10 to 100 | CO/N=C(/COc1ccc(COc2ccc(CCC(=O)O)cc2)cc1)c1ccc(C#N)cc1 (racemic) [Compound 28, 3-{4-[(4-{[(2E,2Z)-2-(4-Cyanophenyl)-2-(methoxyimino)ethyl]oxy}benzyl)oxy]phenyl}propanoic acid]
31 | > 100 | CO/N=C(\COc1ccc(COc2ccc(CCC(=O)O)c(O)c2)cc1)c1ccccc1 [Compound 96, 3-{2-Hydroxy-4-[(4-{[(2Z)-2-(methoxyimino)-2-phenylethyl]oxy}benzyl)oxy]phenyl}propanoic acid]
32 | 10 to 100 | O=C(O)CCc1ccc(OCc2ccc(OC/C(=N\OCc3ccccc3)c3ccccc3)cc2)cc1 [Compound 108, 3-(4-{[4-({(2E,2Z)-2-[(Benzyloxy)imino]-2-phenylethyl}oxy)benzyl]oxy}phenyl) propanoic acid]
